Data as given in article PMC10826971, “Evaluating protein cross-linking as a therapeutic strategy to stabilize SOD1 variants in a mouse model of familial ALS” (PLOS Biology, 2024).
“And” between values parts separate entries of the source, which are not always exact repeats. Equal values may be shown once. “Also recorded” adds a separate entry of the source.

What was measured:
SOD1^G93A = SOD1^G93A (Homo sapiens, UniProt P00441, G94A); experiment: Pharmacodynamic profiling: cross-linked SOD1^G93A dimer in blood (RBC) by LC-MS; assay type: in vivo, mouse; design: Extraction of SOD1^G93A from red blood cell (RBC) protein was performed as previously described; tissue Jackson Laboratory 002726; host or cells: red blood cells of transgenic B6SJL-Tg(SOD1*G93A)1Gur/J mice; details: for % Dimer (cross-linked SOD1^G93A in blood): 10 mg/kg IV single dose
[1] = tested on: wild-type SOD1, SOD1^A4V, SOD1^G93A, SOD1^H46R, and SOD1^G85R; experiment: Mass spectrometry assay for intact protein cross-linking in vitro; assay type: binding, human
Description: We employed a mass spectrometry (MS) assay for intact protein cross-linking. In this assay, any non-covalent (i.e., native) dimer is dissociated by a combination of acidic, organic media and MS source conditions.
Wild-type SOD1, SOD1^A4V, SOD1^G93A, SOD1^H46R, and SOD1^G85R stock solutions were diluted to 40 μm in 10 mM ammonium acetate (pH 7.4). […] Prior to infusion, samples were diluted to 1 μm in 50:50 acetonitrile:water, with 0.1% formic acid. During analysis, 32 scans were acquired in positive mode and averaged. Funnel 1 and skimmer 1 were kept around 150 V and 20 V, respectively, and funnel RF amplitude was held at 60.0 Vpp.

wild-type SOD1 = wild-type SOD1 (Homo sapiens, UniProt P00441); experiment: SOD1 cross-linking in Hep G2 cells, SDS-PAGE and western blot; assay type: cell-based; details: Hep G2 cells in PBS buffer, 30 min
Description: The Hep G2 human hepatocarcinoma cell line (American Type Culture Collection, ATCC, Manassas, Virginia, USA) was cultured using complete EMEM (Eagle’s minimal essential medium, ATCC) media including 10% FBS (fetal bovine serum, ATCC) and 1% penicillin streptomycin (10,000 units/mL penicillin and 10,000 μg/mL streptomycin, Fisher Scientific, Hampton, New Hampshire, USA). Cells were counted and checked for morphology using an inverted Carl Zeiss microscope (Carl Zeiss Microscopy LLC, White Plains, New York, USA). A 96-well plate (Corning Life Sciences, Tewksbury, Massachusetts, USA) was used for culturing cells at 0.2 mill/mL concentration for 24 h at 37°C, 5% CO2 under controlled humidity for western blot experiment. […] Wild-type SOD1 purified from human erythrocyte (Sigma Aldrich, St. Louis, Missouri, USA) was used as positive control (standard) in the experiment. The growth buffer was aspirated and replaced with 30 μL of lysis buffer (150 mM NaCl, 1% Triton X-100, 0.5% sodium deoxycholate, 0.1% SDS, and 50 mM Tris (pH 8.0), all chemicals were purchased from Sigma Aldrich (St. Louis, Missouri, USA)) and incubated for 10 min followed by addition of non-reducing sample buffer. […]

[2] = tested on: NSC-34 cells expressing EGFP-WT-SOD1; experiment: Determination of cells containing inclusions; assay type: cell-based, mouse; design: Inclusion Formation: unit not given here; details: for Inclusion Formation: WT, 48 h, replicates
Description: (§1) Transfected NSC-34 cells were plated out into 96-well plates and left overnight. […] Cells were then fixed using 4% (w/v) paraformaldehyde in 1×PBS for 20 min. Plates for imaging were then processed as previously described with some changes. Cells were imaged using a DMi8 epifluorescent microscope (Leica, Germany) fitted with a Mercury Arc Lamp, a 10× 0.25NA (CAT NO) air objective and an automated stage. A software-based autofocus strategy was utilized to focus on the GFP signal within cells, with a subsequent image being taken in the DAPI channel to view Hoescht-stained nuclei. Relative focus correction was applied between channels to offset emission wavelength effects to the focal plane. Following image acquisition, images were corrected for illumination variation via a background method and processed using a combination of FIJI [66], StarDist, CellProfiler, and CellProfiler Analyst as previously described.

[3] = tested on: NSC-34 cells expressing EGFP-G93A; experiment: Determination of cells containing inclusions; assay type: cell-based, mouse; design: Inclusion Formation: unit not given here; details: for Inclusion Formation: G93A, 48 h, replicates
Description: as §1

SOD1^G93A, sequence (P00441 2-154 G94A limits assumed): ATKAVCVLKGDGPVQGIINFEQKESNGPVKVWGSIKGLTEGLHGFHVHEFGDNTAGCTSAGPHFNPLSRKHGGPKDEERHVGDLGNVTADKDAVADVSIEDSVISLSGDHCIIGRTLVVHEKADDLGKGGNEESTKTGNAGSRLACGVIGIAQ
wild-type SOD1, sequence (P00441 2-154 limits assumed): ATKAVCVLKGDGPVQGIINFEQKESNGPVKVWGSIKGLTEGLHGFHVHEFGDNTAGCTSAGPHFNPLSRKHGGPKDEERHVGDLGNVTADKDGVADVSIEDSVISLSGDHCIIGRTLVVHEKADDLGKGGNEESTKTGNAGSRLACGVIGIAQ

With `[O-][S+]1CCCCS1` (stereo not shown) [S-XL6, 1,2-dithiane-1-oxide] the “% Dimer (cross-linked SOD1^G93A in blood)” value (“% Dimer” below) (SOD1^G93A; 0.5 h post dose) was 38%, the “% Dimer” value (SOD1^G93A; 1 h post dose) was 63% and the “% Dimer” value (SOD1^G93A; 2 h post dose) was 55%. For the same molecule, the “% Dimer” value (SOD1^G93A; 4 h post dose) was 53%, the “% Dimer” value (SOD1^G93A; 8 h post dose) was 51% and the “% Dimer” value (SOD1^G93A; 12 h post dose) was 42%. For the same molecule, the “% Dimer” value (SOD1^G93A; 24 h post dose) was 26%, the “% Dimer” value (SOD1^G93A; 48 h post dose) was 20% and the “% Dimer” value (SOD1^G93A; 72 h post dose) was 16%. For the same molecule, the “% Dimer” value (SOD1^G93A; […] post dose) was 6%, the “Target engagement in blood and brain” value (SOD1^G93A; G93A fALS mouse) was “SOD1 dimer formation in G93A fALS mouse blood and brain” and the “dead-end modifications of SOD1” value [1] was “not observed”. For the same molecule, the “conversion of SOD1 monomer to cross-linked dimer” value ([1]; denaturing MS conditions) was “full conversion of monomer to dimer”, the EC50 (wild-type SOD1) was roughly 5 µM and the “aggregation of EGFP-labeled wild-type SOD1” value [2] was “increased cellular aggregation; also recorded: accelerate the aggregation”. The “Inclusion Formation” value ([2]; 5 uM) was 0.4215 and 0.8811 and 2.367 and 0.4188 and 0.4044, the “Inclusion Formation” value ([2]; 10 uM) was 0.8155 and 1.677 and 1.595 and 4.094 and 2.381 and the “Inclusion Formation” value ([2]; 20 uM) was 9.589 and 4.535 and 7.818 and 6.78 and 6.154. The “aggregation of EGFP-labeled G93A” value [3] was “did not affect”, the “Inclusion Formation” value ([3]; 5 uM) was 5.34 and 6.771 and 14.6572 and 11.1111 and 8.602 and the “Inclusion Formation” value ([3]; 10 uM) was 6.731 and 9.113 and 13.3487 and 16.0367 and 12.7358. The “Inclusion Formation” value ([3]; 20 uM) was 8.219 and 11.7978 and 11.4911 and 10.411 and 12.1547.
